In the assay the test system is murine renal cell carcinoma (RENCA) tumor cells applied orthotopically. Description: Example 5: orthotopic RENCA model, late treatment from Day 10. Type of assay: in vivo, Balb/c mouse. The settings on record: for Kidney weight / Lung weight / Number of intestinal lymph node metastases / Number of lung metastases (late treatment day 10-14) / Kidney volume: day 18, individual animals; for Vessel density, later start of treatment day 10-14: individual sections. On the procedure: The tests were carried out on a murine renal cell carcinoma model (RENCA) of the Balb/c mouse. The tumor cells were applied orthotopically into the left-hand renal capsule of syngenic mice. The effect of the treatment carried out on a primary tumor (in the implanted kidney), metastases (predominantly in the lungs, spleen and intestinal lymph nodes) and vessel density were investigated.
After anesthesia by means of isoflurane narcosis (O2— flow approx. 2.0 l with 0.5-1.5% isoflurane) a small incision was made in the mouse's left flank. The kidney was prepared and presented free from the peritoneum. A 27 G needle was introduced via the lower kidney pole through to below the renal capsule with visual inspection, and […] in 70 μl aliquots respectively applied once. The occurrence of a visible liquid-filled blister between kidney parenchyma and renal capsule and the discoloration of the kidneys were regarded as criteria for successful application. The kidney was subsequently reset and the incision into the abdominal wall closed by means of fascia stitches and cutaneous stitches with absorbable stitching material. Five test groups with ten animals respectively were formed. Group 1 negative control, group 2 positive control melphalan (Glaxo), group 3 and 4 MOC melphalan 2.5 mg/kg and 5 mg/kg. In the case of group 5 an antiangiogenically effective substance was applied as the positive control. The start of treatment was fixed for day 1 post op. for Cu(melphalan)2. Treatment was carried out daily up to day seven (see treatment model). The test was ended after 19 days since, owing to their size, the control tumors required termination for ethical reasons.
After selecting the animals the tissues to be examined were quickly transferred into liquid nitrogen and then frozen at −80° C. 5-10 μm thick sections were prepared from the tissue parts. The preparations were immunohistochemically dyed with an anti-CD31 antibody (Pecam-1) and the number of vessels in the control and treatment groups counted. Two sections of each tumor with three areas respectively were used for counting the vessels.
The study report matches that of Example 4, differing only in terms of treatment intervals and dose groups. Four test groups with ten animals respectively were formed. Group 1 negative control, group 2 positive control melphalan (Glaxo), groups 3 and 4 Cu(melphalan)2 5 mg/kg and 7.5 mg/kg. The start of treatment was fixed for day 10 post op. for all groups. The intention was for daily treatment from day 10 until day 17 (see treatment model). Owing to toxicities the treatment period was reduced to day 10-14. After 18 days the test was ended since, owing to their size, the control tumors required termination for ethical reasons.
• The implantation day was counted as day 0. • Duration of the test 18 days. • Number of animals at beginning of test 40; no animals died during the op.

Where [1] appears, read: Cu(melphalan)2 8.8 μmol/kg (5 mg/kg) i.p. Day 10-14.
The mark [2] stands for this setting: Cu(melphalan)2 13.2 μmol/kg (7.5 mg/kg/d) i.p. Day 10-14.

“And” between values parts separate entries of the source, which are not always exact repeats. Equal entries are not always repeated.

Regarding `N[C@@H](Cc1ccc(N(CCCl)CCCl)cc1)C(=O)[O-].N[C@@H](Cc1ccc(N(CCCl)CCCl)cc1)C(=O)[O-].O.O.[Cu+2]` [Cu(melphalan)2], under setting [1], the Kidney weight is 1.70 gr and 1.78 gr (2×) and 1.88 gr and 1.23 gr and 0.75 gr and 1.56 gr; the Lung weight was 0.11 gr (2×) and 0.14 gr and 0.15 gr and 0.13 gr (2×) and 0.21 gr; the “Number of intestinal lymph node metastases” value is 20 and 40 and 36 and 12 and 64 and 51 and 75; the “Number of lung metastases (late treatment day 10-14)” value was 28 and 0 (2×) and 21 and 345 and 431 and 750. For the same compound, the “Vessel density, later start of treatment day 10-14” value under setting [1] was 44 (2×) and 38 and 34 and 56 (2×) and 46 and 26 and 51 and 72 and 25 and 35 and 40 and 31. The Kidney volume (Cu(melphalan)2 8.8 μmol/kg (5 mg/kg) i.p. from Day 10 (planned 10-17, reduced to 10-14)) was 3.12 cm^3 and 2.60 cm^3 and 2.63 cm^3 and 2.08 cm^3 and 2.90 cm^3 and 1.96 cm^3 and 2.76 cm^3. Moreover, under setting [2], the Kidney weight is 1.37 gr and 2.39 gr and 0.26 gr and 1.90 gr and 1.05 gr and 0.27 gr and 1.92 gr and 0.46 gr and 2.50 gr and 0.74 gr; the Lung weight was 0.11 gr and 0.13 gr (2×) and 0.10 gr; the “Number of intestinal lymph node metastases” value stood at 0; the “Number of lung metastases (late treatment day 10-14)” value is 0 (4×) and 3 and 77 and 750 and 300 and 4 and 10. Besides, the “Vessel density, later start of treatment day 10-14” value under setting [2] is 35 (2×) and 52 and 58 and 43 and 48 and 65 and 53. Moreover, where the note is “Cu(melphalan)2 13.2 μmol/kg (7.5 mg/kg/d) i.p. from Day 10 (planned 10-17, reduced to 10-14)”, the Kidney volume was 1.96 cm^3 and 3.08 cm^3 and 0.60 cm^3 and 2.60 cm^3 and 1.98 cm^3 and 0.91 cm^3 and 3.06 cm^3 and 1.22 cm^3 and 3.33 cm^3 and 1.68 cm^3. The “antiangiogenic effect (vessel density)” value (dose of 8.8 μmol/kg, Day 10-14) is “significantly antiangiogenic”. Besides, the “anti-metastatic effect, lung metastases and lymph node metastases” value (dose of 13.2 μmol/kg, Day 10-14) is reported as “significant anti-metastatic effect”. Moreover, the “anti-tumoral effect against the primary tumor” value (dose of both 8.8 μmol/kg and 13.2 μmol/kg, Day 10-14) is listed as “significant anti-tumoral effect”.

(Values after patent publication US20090105206A1, “Copper Melphalan And Copper Tegafur As Anti-Tumor Agents” (priority 2004, published 2009).)
